The source of these data is ChEMBL document CHEMBL3994588, “Importance of 5/6-aryl substitution on the pharmacological profile of 4'-((2-propyl-1H-benzo[d]imidazol-1-yl)methyl)-[1,1'-biphenyl]-2-carboxylic acid derived PPARγ agonists” (Eur J Med Chem, 2017).

Test [1] has as its target T1, Peroxisome proliferator-activated receptor gamma (Homo sapiens, UniProt P37231).
T1 sequence (P37231 whole entry): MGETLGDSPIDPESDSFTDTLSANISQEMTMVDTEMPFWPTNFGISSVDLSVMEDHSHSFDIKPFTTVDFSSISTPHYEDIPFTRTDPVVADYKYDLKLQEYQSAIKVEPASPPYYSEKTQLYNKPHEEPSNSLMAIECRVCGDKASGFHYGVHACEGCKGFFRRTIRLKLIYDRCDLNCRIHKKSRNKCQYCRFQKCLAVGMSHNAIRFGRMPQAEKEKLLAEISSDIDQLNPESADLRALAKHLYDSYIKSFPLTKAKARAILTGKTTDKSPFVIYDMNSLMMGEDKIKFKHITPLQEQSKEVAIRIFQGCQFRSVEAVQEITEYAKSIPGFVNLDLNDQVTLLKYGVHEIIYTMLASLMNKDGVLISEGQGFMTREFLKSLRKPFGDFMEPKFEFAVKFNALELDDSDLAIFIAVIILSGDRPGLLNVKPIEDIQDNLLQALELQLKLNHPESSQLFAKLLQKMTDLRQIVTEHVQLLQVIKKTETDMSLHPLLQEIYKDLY
The test can be described thus: (§1) Transactivation of Gal4 fused human PPARgamma LBD expressed in African green monkey COS7 cells after 42 hrs by dual luciferase reporter gene assay. Format: cell-based. (A reporter such as luciferase makes a cellular process visible.)

Test [2] deals with T2, Peroxisome proliferator-activated receptor gamma (Homo sapiens) (UniProt P37231).
T2 sequence (whole entry): T1 sequence (P37231 whole entry)
The description is as §1. Format: cell-based.

With `CCCc1nc2c(C)cc(-c3nc4ccccc4n3C)cc2n1Cc1ccc(-c2ccccc2C(=O)O)cc1`, the EC50 (as a rule, the concentration needed to bring the measured effect to its halfway point) in test [1] (read-out: EC50) came out at 4970 nM.
Turning to `CCCc1nc2ccc(-c3cccc(OC)c3)cc2n1Cc1ccc(-c2ccccc2C(=O)O)cc1`, the 50% effective concentration (EC50) in test [1] (read-out: EC50) stood at 1350 nM. The Activity result in test [2] was “Dose-dependent effect”.
As for `CCCc1nc2ccc(-c3ccc(Cl)cc3)cc2n1Cc1ccc(-c2ccccc2C(=O)O)cc1`, the EC50 in test [1] (read-out: EC50) came out at 1150 nM. In addition, the Activity entry in test [2] is “Dose-dependent effect”.
Consider `CCCc1nc2ccccc2n1Cc1ccc(-c2ccccc2C(=O)O)cc1`, for which the EC50 in test [1] (read-out: EC50) was 6440 nM. Moreover, the Activity result in test [2] was “Dose-dependent effect”.
In the case of `CCCc1nc2ccc(-c3ccc(O)cc3)cc2n1Cc1ccc(-c2ccccc2C(=O)O)cc1`, the EC50 in test [1] (read-out: EC50) came out at 2980 nM. In addition, in test [2], the Activity entry is “Dose-dependent effect”.
Take `CCCc1nc2ccc(-c3cccc(O)c3)cc2n1Cc1ccc(-c2ccccc2C(=O)O)cc1`: the EC50 in test [1] (read-out: EC50) is 4090 nM. For the same compound, in test [2], the Activity result was “Dose-dependent effect”.
For `CCCc1nc2ccc(-c3ccccc3Cl)cc2n1Cc1ccc(-c2ccccc2C(=O)O)cc1`, the EC50 in test [1] (read-out: EC50) was 1390 nM. Also, the Activity result in test [2] is “Dose-dependent effect”.
The corresponding values for `CCCc1nc2cc(-c3ccc(Cl)cc3)ccc2n1Cc1ccc(-c2ccccc2C(=O)O)cc1` are 190 nM and “Dose-dependent effect”.
As for `CCCc1nc2cc(-c3ccccc3Cl)ccc2n1Cc1ccc(-c2ccccc2C(=O)O)cc1`, the EC50 in test [1] (read-out: EC50) was found to be 930 nM. The Activity result in test [2] is “Dose-dependent effect”.
For the compound `CCCc1nc2cc(-c3cccc(Cl)c3)ccc2n1Cc1ccc(-c2ccccc2C(=O)O)cc1`, the EC50 entry in test [1] is on record as “Not Active”.
Take `CCCc1nc2cc(-c3cccc(O)c3)ccc2n1Cc1ccc(-c2ccccc2C(=O)O)cc1`: the EC50 in test [1] (read-out: EC50) was 1250 nM. Besides, the Activity entry in test [2] is “Dose-dependent effect”.
On to `CCCc1nc2ccc(-c3ccc(OC)cc3)cc2n1Cc1ccc(-c2ccccc2C(=O)O)cc1`, for which the 50% effective concentration (EC50) in test [1] (read-out: EC50) was 1010 nM. Further, the Activity result in test [2] was “Dose-dependent effect”.
Take `CCCc1nc2cc(-c3ccc(OC)cc3)ccc2n1Cc1ccc(-c2ccccc2C(=O)O)cc1`: in test [1] (read-out: EC50), the EC50 worked out at 410 nM. Besides, in test [2], the Activity result is “Dose-dependent effect”.
The corresponding values for `CCCc1nc2cc(-c3ccc(O)cc3)ccc2n1Cc1ccc(-c2ccccc2C(=O)O)cc1` are 1010 nM and “Dose-dependent effect”.
The matching figures for `CCCc1nc2ccc(-c3cccc(Cl)c3)cc2n1Cc1ccc(-c2ccccc2C(=O)O)cc1`: 770 nM and “Dose-dependent effect”.
The matching figures for `CCCc1nc2cc(-c3cccc(OC)c3)ccc2n1Cc1ccc(-c2ccccc2C(=O)O)cc1`: 290 nM and “Dose-dependent effect”.
